Where two headings read alike, the source gives them in different places.
Tests used:
Experiment in all cases: Quick's thromboplastin time (PT), Schnitger & Gross
Assay type in all cases: biochemical
[1] = tested on: FVII-deficient plasma; conditions: for Coagulation time FVII-MF / FVII-sens. FVII-MP/100%: 0.75 sec, incubated 37° C., 90 min; for Coagulation time FVII-MP / FVII sens.: FVII-MP/100%: 0.5 sec
Procedure: (§1) Quick's thromboplastin time (PT) was then determined using a Schnitger & Gross as follows:
(§2) Heat reagents and tubes to 37° C.;
(§3) Introduce […] of control plasma N or FVII-deficient plasma into the tubes;
(§4) Incubate for 1 min in the thermoblock;
(§5) Add 200 μl of thromboplastin and at the same time start the measuring operation; shake the tube briefly and place it in the measuring position of the Schnitger & Gross, and insert the electrode holder up to the limit stop;
(§6) Read off the coagulation time.
(§7) Quick's thromboplastin time (PT) is then determined using a Schnitger & Gross as follows:
(§8) Introduce 100 μl of plasma into the tubes;
(§9) Add 200 μl of thromboplastin and at the same time start the measuring operation;
(§10) shake the tube briefly, place it in the measuring position of the Schnitger & Gross, and insert the electrode holder up to the limit stop;

[2] = tested on: Standard human plasma
Procedure: as §1, §2, §3, §4, §5, §6, §7, §8, §9, §10

[3] = tested on: control plasma Patho II
Procedure: as §7, §2, §8, §4, §9, §10, §6
The spread was calculated from the ratio of the coagulation times for the dilution of the StHPl and the StHPl, and the FVII sensitivity was calculated from the ratio of the coagulation times for FVII-MP and STHPL.
Standard human plasma, the control plasma Patho II and an FVII-deficient plasma were used as samples. The reagents were stored at 4° C. and 37° C. and the coagulation time was repeated after 7 and 14 days. The spread was calculated from the ratio of the coagulation times of the Patho II and the StHPl, and the FVII sensitivity was calculated from the ratio of the coagulation times for FVII-MP and the STHPL.

[4] = 0.00003% added to Thromborel S heated 120° C.
[5] = 0.0003% added to Thromborel S heated 120° C.
[6] = 0.003% added to Thromborel S heated 120° C.
[7] = 0.03% added to Thromborel S heated 120° C.
[8] = 0.3% added to Thromborel S heated 120° C.
[9] = 0.5 mg/l added to Thromborel S heated 95° C.
[10] = 1.5 mM added to Thromborel S heated 95° C.
[11] = 1.5 mM added to Thromborel S heated 95° C., 0.5 sec

OO [H2O2]
Coagulation time FVII-MF [1, 4]: 132 s | FVII-sens. FVII-MP/100% [1, 4]: 11.1 | Coagulation time FVII-MF [1, 5]: 133 s | FVII-sens. FVII-MP/100% [1, 5]: 11.4 | Coagulation time FVII-MF [1, 6]: 139 s | FVII-sens. FVII-MP/100% [1, 6]: 12.2 | Coagulation time FVII-MF [1, 7]: 143 s | FVII-sens. FVII-MP/100% [1, 7]: 12.4 | Coagulation time FVII-MF [1, 8]: 156 s | FVII-sens. FVII-MP/100% [1, 8]: 10.4 | Coagulation time 100% ([2]; 0.00003% added to Thromborel S heated 120° C., 0.75 sec, incubated 37° C., 90 min): 11.9 s | Coagulation time 100% ([2]; 0.0003% added to Thromborel S heated 120° C., 0.75 sec, incubated 37° C., 90 min): 11.7 s | Coagulation time 100% ([2]; 0.003% added to Thromborel S heated 120° C., 0.75 sec, incubated 37° C., 90 min): 11.4 s | Coagulation time 100% ([2]; 0.03% added to Thromborel S heated 120° C., 0.75 sec, incubated 37° C., 90 min): 11.5 s | Coagulation time 100% ([2]; 0.3% added to Thromborel S heated 120° C., 0.75 sec, incubated 37° C., 90 min): 15 s

CC(=O)N[C@@H](CC(C)C)C(=O)N[C@@H](CC(C)C)C(=O)N[C@H](C=O)CCCNC(=N)N [Leupeptin]
Coagulation time FVII-MP [1, 9]: 121 s | FVII sens.: FVII-MP/100% [1, 9]: 11.4 | Coagulation time 100% [2]: 10.6 s | Coagulation time Patho II [3]: 22.5 s | Spread: Patho II/100% [3]: 2.1

O=S(=O)(F)Cc1ccccc1 [PMSF, phenylmethylsulfonyl fluoride]
Coagulation time FVII-MP [1, 10]: 259 s | FVII sens.: FVII-MP/100% [1, 10]: 24.2 | Coagulation time 100% [2, 11]: 10.7 s | Coagulation time Patho II [3, 11]: 21.9 s | Spread: Patho II/100% [3, 11]: 2.0

From patent US6376209B2, “Increasing the FVII sensitivity of a thromboplastin reagent” (Dade Behring Marburg GmbH, priority 1997, dated 2002)
